Assay results reported in PubChem BioAssay (NCI).
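Following 48 hours of exposure in 96-well plates, responses at five concentrations were used to interpolate endpoints linearly. GI50: concentration for 50% inhibition of growth. At the TGI there is no net growth.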

How the values were obtained:
Experiment in all cases: NCI tumour cell line growth inhibition, 48 h
BT-549 breast = tested on: BT-549 breast
HCC-2998 colon = tested on: HCC-2998 colon
HS 578T breast = tested on: HS 578T breast
NCI-H522 lung = tested on: NCI-H522 lung
OVCAR-3 ovarian = tested on: OVCAR-3 ovarian
RPMI-8226 leukemia = tested on: RPMI-8226 leukemia
U251 CNS = tested on: U251 CNS
KM12 colon = tested on: KM12 colon
MCF7 breast = tested on: MCF7 breast

SMILES	TGI (BT-549 breast)	TGI (HCC-2998 colon)	TGI (HS 578T breast)	TGI (NCI-H522 lung)	TGI (OVCAR-3 ovarian)	TGI (RPMI-8226 leukemia)	TGI (U251 CNS)	TGI (KM12 colon)	TGI (MCF7 breast)	GI50 (BT-549 breast)	GI50 (HCC-2998 colon)	GI50 (HS 578T breast)	GI50 (KM12 colon)	GI50 (MCF7 breast)	GI50 (NCI-H522 lung)	GI50 (OVCAR-3 ovarian)	GI50 (RPMI-8226 leukemia)	GI50 (U251 CNS)
CC(C)[Si](Oc1ccc(CC2N(C(=O)c3ccc([N+](=O)[O-])cc3)C(CCc3ccccc3)CC2(C)C=O)cc1)(C(C)C)C(C)C (centres undefined)	> 100 µM	> 100 µM	> 100 µM	> 100 µM	> 100 µM	> 100 µM	> 100 µM	–	–	–	–	–	–	–	–	–	–	–
S=C1NNC2(C(=S)N1)c1ccccc1-c1ccccc12	> 10 µM	> 10 µM	> 10 µM	–	–	> 10 µM	> 10 µM	> 10 µM	> 10 µM	–	–	–	–	–	–	–	–	–
CC(C)C(CCOS(=O)(=O)O)CCC(C)[C@H]1[C@@H](O)C(O)C2[C@]3(O)C[C@@H](O)C4(O)C[C@@H](O)CC[C@]4(C)C3CC[C@@]21C (some centres undefined)	–	> 100 µM	–	> 100 µM	> 100 µM	> 100 µM	> 100 µM	> 100 µM	–	–	–	–	–	–	–	–	–	–
CCN(/N=C1\CC2C=CCN(C2)C(=O)Cc2c1[nH]c1ccccc21)S(=O)(=O)c1ccc(C)cc1 (centres undefined)	–	> 100 µM	–	> 100 µM	–	> 100 µM	> 100 µM	> 100 µM	–	–	–	–	–	–	–	–	–	–
OCC1OC(n2cnc3c(Cl)nc(Nc4ccc(Cl)c(Cl)c4)nc32)CC1O (centres undefined)	22.3 µM	17.1 µM	32.3 µM	18.1 µM	46.1 µM	29.4 µM	23.8 µM	17.7 µM	27.5 µM	–	–	–	–	–	–	–	–	–
O=C(CC(=O)N1N=C(N(c2ccccc2)c2ccccc2)CC1c1ccccc1)Nc1cccc(Cl)c1 (centres undefined)	> 100 µM	> 100 µM	> 100 µM	> 100 µM	> 100 µM	> 100 µM	> 100 µM	> 100 µM	> 100 µM	–	–	–	–	–	–	–	–	–
CC#CC#C/C=C1\C=CC2(OC=CC2O)O1 (centres undefined)	–	> 23.3 µM	–	> 20.3 µM	> 20 µM	> 23.3 µM	> 23.3 µM	7.3 µM	–	–	–	–	–	–	–	–	–	–
C/C(CCN(C)C)=N\OC(=O)c1ccccc1	–	> 100 µM	–	> 100 µM	> 100 µM	> 100 µM	> 100 µM	> 100 µM	–	–	–	–	–	–	–	–	–	–
Cc1ccc(S(=O)(=O)Nn2c(S)c(C#N)c(-c3ccc(Cl)cc3)c(C#N)c2=O)cc1	41.9 µM	> 100 µM	–	37.4 µM	> 100 µM	88.8 µM	58 µM	88.4 µM	> 100 µM	–	–	–	–	–	–	–	–	–
C=C1CN2CCc3c([nH]c4ccccc34)C2CC1CC(=O)N(C)C (centres undefined)	–	> 309 µM	–	> 309 µM	> 309 µM	> 309 µM	> 309 µM	> 309 µM	–	–	–	–	–	–	–	–	–	–
CCCCCCCCCCCCCCCCCCOc1ccccc1COP(=O)(O)OOCC[N+](C)(C)C	4.26 µM	1.6 µM	4.91 µM	13.1 µM	2.56 µM	–	–	2.12 µM	3.32 µM	1.32 µM	0.787 µM	1.18 µM	1.01 µM	1.14 µM	1.73 µM	0.993 µM	–	–
N=c1oc2cc(O)ccc2cc1C(=O)Nc1cccc2ccccc12	11.5 µM	12.9 µM	> 100 µM	7.47 µM	> 27.9 µM	> 100 µM	12.4 µM	> 36.2 µM	17.8 µM	–	–	–	–	–	–	–	–	–
COc1cc(N(CCCl)CCCl)ccc1/C=N\NC(=O)c1cccnc1	89.5 µM	> 100 µM	> 100 µM	65.8 µM	50.4 µM	> 100 µM	> 100 µM	> 100 µM	> 100 µM	20.9 µM	41.2 µM	32.6 µM	33.6 µM	23.8 µM	21.8 µM	21 µM	30.9 µM	23.8 µM
CC(N)C(C)c1ccccc1 (centres undefined)	–	> 100 µM	–	> 100 µM	> 100 µM	> 100 µM	> 100 µM	> 100 µM	–	–	–	–	–	–	–	–	–	–
COc1cccc(/C=N/[N-]C(N)=O)c1[O-].[Co+2].[OH3+].c1ccncc1	–	> 100 µM	–	> 100 µM	> 100 µM	> 100 µM	> 100 µM	> 100 µM	–	–	–	–	–	–	–	–	–	–
Nc1ncnc2c1ccn2-c1cccc(NC(=O)c2ccc(N3CCOCC3)c(C(F)(F)F)c2)c1	–	19.6 µM	6.03 µM	5.2 µM	11.4 µM	4.04 µM	6.44 µM	10.4 µM	14.2 µM	–	4.6 µM	1.83 µM	2.69 µM	3.44 µM	1.74 µM	3.04 µM	1.39 µM	2.41 µM
CCCC(C(=O)OC)C1N=C(NC#N)N(Cc2ccccc2)C1=O (centres undefined)	–	> 100 µM	–	> 100 µM	> 100 µM	> 100 µM	> 100 µM	> 100 µM	–	–	–	–	–	–	–	–	–	–
COc1ccc(-c2cc(=O)c3cc(O)ccc3o2)c(OC)c1OC	–	> 100 µM	–	64.6 µM	46.3 µM	32.8 µM	–	87.7 µM	–	–	–	–	–	–	–	–	–	–
CC1CCc2c(sc3ncnc(N/N=C/c4ccc(Cl)cc4)c23)C1 (centres undefined)	–	> 100 µM	–	65.1 µM	> 100 µM	> 100 µM	> 100 µM	–	–	–	–	–	–	–	–	–	–	–
